Reference: patent publication US20260217735A1, “HETEROCYCLES AND USES THEREOF” (Kumquat Biosciences Inc., priority 2023, published 2026)
pIC50: −log10 of the molar value.

Key:
KRAS G12S = biological target: T1, KRAS G12S (Homo sapiens, UniProt P01116, G12S); assay: HTRF assay, KRAS G12S interaction with SOS1; type: biochemical; conditions: bins <500 nM / 500 nM to 1000 nM, read-out: Inhibition of KRAS G12S (IC50)
T1 construct: made in house; host or cells: E. coli, e.g. BL21 (DE3)

KRAS G12V = biological target: T2, KRAS G12V (Homo sapiens, UniProt P01116, G12V); assay: HTRF assay, KRAS G12V interaction with SOS1; type: biochemical; conditions: bins <500 nM / 500 nM to 1000 nM, read-out: Inhibition of KRAS G12V (IC50)
T2 construct: made in house; host or cells: E. coli, e.g. BL21 (DE3)

MiaPaca2 cells = assay: Ras cellular assay, growth of cells with K-Ras G12C mutation; type: cell-based; conditions: Homo sapiens, MIA PaCa-2; cell proliferation assay; bins ≤500 nM / >500 nM; read-out: Inhibition of MiaPaca2 Cells (IC50)
Outline: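 MIA PaCa-2 cells (K-Ras G12C, about 125-150 cells/well) grown in 0.25% soft agar over a 0.6% agar base, compound added on day 2 at 0.3% final DMSO. Growth read on day 10 by Cell Titer 96 AQueous absorbance (490 nm, reference 660 nm) against time-zero wells; IC50 from four-parameter fit.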

KRAS WT = biological target: T3, KRAS WT (Homo sapiens, UniProt P01116); assay: HTRF assay, wildtype KRAS interaction with SOS1; type: biochemical; conditions: bins <500 nM / 500 nM to 1000 nM, read-out: Inhibition of KRAS WT (IC50)
T3 construct: made in house; host or cells: E. coli, e.g. BL21 (DE3)

KRAS G12D = biological target: T4, KRAS G12D (Homo sapiens, UniProt P01116, G12D); assay: HTRF assay, KRAS G12D interaction with SOS1; type: biochemical; conditions: bins <500 nM / 500 nM to 1000 nM, read-out: Inhibition of KRAS G12D (IC50)
T4 construct: made in house; host or cells: E. coli, e.g. BL21 (DE3)
T4 sequence (P01116 1-188 isoform P01116-2 G12D): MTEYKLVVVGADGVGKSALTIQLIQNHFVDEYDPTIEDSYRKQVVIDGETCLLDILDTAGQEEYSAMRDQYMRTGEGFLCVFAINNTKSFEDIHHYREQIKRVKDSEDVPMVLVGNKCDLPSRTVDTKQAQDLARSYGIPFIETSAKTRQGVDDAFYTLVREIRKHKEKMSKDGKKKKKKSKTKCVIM

T3 sequence (P01116 1-188 isoform P01116-2): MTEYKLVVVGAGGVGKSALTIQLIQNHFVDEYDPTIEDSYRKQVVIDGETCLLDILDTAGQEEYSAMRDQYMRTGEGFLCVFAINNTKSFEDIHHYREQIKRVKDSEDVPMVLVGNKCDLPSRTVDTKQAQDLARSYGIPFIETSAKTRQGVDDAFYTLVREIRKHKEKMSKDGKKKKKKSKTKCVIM
T1 sequence (P01116 1-188 isoform P01116-2 G12S): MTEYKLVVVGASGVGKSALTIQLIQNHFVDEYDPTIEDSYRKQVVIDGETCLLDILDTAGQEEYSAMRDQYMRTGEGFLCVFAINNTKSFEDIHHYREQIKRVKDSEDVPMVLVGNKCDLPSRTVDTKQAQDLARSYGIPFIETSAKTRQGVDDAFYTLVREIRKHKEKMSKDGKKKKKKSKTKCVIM
T2 sequence (P01116 1-188 isoform P01116-2 G12V): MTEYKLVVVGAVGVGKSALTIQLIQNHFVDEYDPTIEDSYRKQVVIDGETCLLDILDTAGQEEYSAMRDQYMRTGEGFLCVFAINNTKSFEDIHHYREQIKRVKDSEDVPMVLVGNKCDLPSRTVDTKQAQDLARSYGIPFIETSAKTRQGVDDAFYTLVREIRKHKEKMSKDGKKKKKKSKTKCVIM

Row | Structure (SMILES) | pIC50 (KRAS G12S) | pIC50 (KRAS G12V) | pIC50 (MiaPaca2 cells) | pIC50 (KRAS WT) | pIC50 (KRAS G12D)
1 | CC1C(N(C)c2nc(OC[C@@]34CCCN3C[C@H](F)C4)nc3c(F)c(-c4ccc(F)c5sc(N)c(C#N)c45)c(Cl)cc23)CCN1C(=O)n1cnc(F)n1 (stereo partly drawn) [Compound 160, 2-amino-4-(6-chloro-8-fluoro-4-((1-(3-fluoro-1H-1,2,4-triazole-1-carbonyl)-2-methylpyrrolidin-3-yl)(methyl)amino)-2-(((2R,7aS)-2-fluorotetrahydro-1H-pyrrolizin-7a(5H)-yl)methoxy)quinazolin-7-yl)-7-fluorobenzo[b]thiophene-3-carbonitrile] | > 6.30 | > 6.30 | ≥ 6.30 | > 6.30 | > 6.30
2 | Cc1c(C#N)ncn1C(=O)N1C[C@]2(CCCCN(c3nc(OC[C@@]45CCCN4C[C@H](F)C5)nc4c(F)c(-c5ccc(F)c6sc(N)c(C#N)c56)c(Cl)cc34)C2)[C@H]1C [Compound 161, 1-((1R,4R)-6-(7-(2-amino-3-cyano-7-fluorobenzo[b]thiophen-4-yl)-6-chloro-8-fluoro-2-(((2R,7aS)-2-fluorotetrahydro-1H-pyrrolizin-7a(5H)-yl)methoxy)quinazolin-4-yl)-1-methyl-2,6-diazaspiro[3.6]decane-2-carbonyl)-5-methyl-1H-imidazole-4-carbonitrile] | > 6.30 | > 6.30 | ≥ 6.30 | > 6.30 | > 6.30
3 | CCN(c1nc(OC[C@@]23CCCN2C[C@H](F)C3)nc2c(F)c(-c3ccc(F)c4sc(N)c(C#N)c34)c(C(F)(F)F)cc12)[C@@H]1CCN(C(=O)n2cc(C)nc2Cl)[C@@H]1C [Compound 162, 2-amino-4-(4-(((2R,3R)-1-(2-chloro-4-methyl-1H-imidazole-1-carbonyl)-2-methylpyrrolidin-3-yl)(ethyl)amino)-8-fluoro-2-(((2R,7aS)-2-fluorotetrahydro-1H-pyrrolizin-7a(5H)-yl)methoxy)-6-(trifluoromethyl)quinazolin-7-yl)-7-fluorobenzo[b]thiophene-3-carbonitrile] | > 6.30 | > 6.30 | ≥ 6.30 | > 6.30 | > 6.30
4 | CCN(c1nc(OC[C@@]23CCCN2C[C@H](F)C3)nc2c(F)c(-c3ccc(F)c4sc(N)c(C#N)c34)c(Cl)cc12)[C@@H]1CCN(C(=O)n2ccnc2C)[C@@H]1C [Compound 163, 2-amino-4-(6-chloro-4-(ethyl((2R,3R)-2-methyl-1-(2-methyl-1H-imidazole-1-carbonyl)pyrrolidin-3-yl)amino)-8-fluoro-2-(((2R,7aS)-2-fluorotetrahydro-1H-pyrrolizin-7a(5H)-yl)methoxy)quinazolin-7-yl)-7-fluorobenzo[b]thiophene-3-carbonitrile] | > 6.30 | > 6.30 | ≥ 6.30 | > 6.30 | > 6.30
5 | Cc1cn(C(=O)N2CC3(CCCCN(c4nc(OC[C@@]56CCCN5C[C@H](F)C6)nc5c(F)c(-c6ccc(F)c7sc(N)c(C#N)c67)c(Cl)cc45)C3)C2)cn1 [Compound 164, 2-amino-4-(6-chloro-8-fluoro-2-(((2R,7aS)-2-fluorotetrahydro-1H-pyrrolizin-7a(5H)-yl)methoxy)-4-(2-(4-methyl-1H-imidazole-1-carbonyl)-2,6-diazaspiro[3.6]decan-6-yl)quinazolin-7-yl)-7-fluorobenzo[b]thiophene-3-carbonitrile] | > 6.30 | > 6.30 | ≥ 6.30 | > 6.30 | > 6.30
6 | Cc1nc(C#N)cn1C(=O)N1C[C@]2(CCCCN(c3nc(OC[C@@]45CCCN4C[C@H](F)C5)nc4c(F)c(-c5ccc(F)c6sc(N)c(C#N)c56)c(Cl)cc34)C2)[C@H]1C [Compound 165, 1-((1R,4R)-6-(7-(2-amino-3-cyano-7-fluorobenzo[b]thiophen-4-yl)-6-chloro-8-fluoro-2-(((2R,7aS)-2-fluorotetrahydro-1H-pyrrolizin-7a(5H)-yl)methoxy)quinazolin-4-yl)-1-methyl-2,6-diazaspiro[3.6]decane-2-carbonyl)-2-methyl-1H-imidazole-4-carbonitrile] | > 6.30 | > 6.30 | ≥ 6.30 | > 6.30 | > 6.30
7 | CC[C@@H]1[C@H](N(CC)c2nc(OC[C@@]34CCCN3C[C@H](F)C4)nc3c(F)c(-c4ccc(F)c5sc(N)c(C#N)c45)c(Cl)cc23)CCN1C(=O)n1cnc(F)n1 [Compound 168, 2-amino-4-(6-chloro-4-(ethyl((2R,3R)-2-ethyl-1-(3-fluoro-1H-1,2,4-triazole-1-carbonyl)pyrrolidin-3-yl)amino)-8-fluoro-2-(((2R,7aS)-2-fluorotetrahydro-1H-pyrrolizin-7a(5H)-yl)methoxy)quinazolin-7-yl)-7-fluorobenzo[b]thiophene-3-carbonitrile] | > 6.30 | > 6.30 | ≥ 6.30 | > 6.30 | > 6.30
8 | CC(C)[C@@H]1[C@H](N(C)c2nc(OC[C@@]34CCCN3C[C@H](F)C4)nc3c(F)c(-c4ccc(F)c5sc(N)c(C#N)c45)c(Cl)cc23)CCN1C(=O)n1ccnc1 [Compound 169, 4-(4-(((2R,3R)-1-(1H-imidazole-1-carbonyl)-2-isopropylpyrrolidin-3-yl)(methyl)amino)-6-chloro-8-fluoro-2-(((2R,7aS)-2-fluorotetrahydro-1H-pyrrolizin-7a(5H)-yl)methoxy)quinazolin-7-yl)-2-amino-7-fluorobenzo[b]thiophene-3-carbonitrile] | > 6.30 | > 6.30 | ≥ 6.30 | > 6.30 | > 6.30
9 | CCN(c1nc(OC[C@@]23CCCN2C[C@H](F)C3)nc2c(F)c(-c3ccc(F)c4sc(N)c(C#N)c34)c(Cl)cc12)[C@@H]1CCN(C(=O)n2cnc(OC)c2)[C@@H]1C [Compound 170, 2-amino-4-(6-chloro-4-(ethyl((2R,3R)-1-(4-methoxy-1H-imidazole-1-carbonyl)-2-methylpyrrolidin-3-yl)amino)-8-fluoro-2-(((2R,7aS)-2-fluorotetrahydro-1H-pyrrolizin-7a(5H)-yl)methoxy)quinazolin-7-yl)-7-fluorobenzo[b]thiophene-3-carbonitrile] | > 6.30 | > 6.30 | ≥ 6.30 | > 6.30 | > 6.30
10 | CCN(c1nc(OC[C@@]23CCCN2C[C@H](F)C3)nc2c(F)c(-c3ccc(F)c4sc(N)c(C#N)c34)c(C3CC3)cc12)[C@@H]1CCN(C(=O)n2ccnc2C)[C@@H]1C [Compound 171, 2-amino-4-(6-cyclopropyl-4-(ethyl((2R,3R)-2-methyl-1-(2-methyl-1H-imidazole-1-carbonyl)pyrrolidin-3-yl)amino)-8-fluoro-2-(((2R,7aS)-2-fluorotetrahydro-1H-pyrrolizin-7a(5H)-yl)methoxy)quinazolin-7-yl)-7-fluorobenzo[b]thiophene-3-carbonitrile] | > 6.30 | > 6.30 | ≥ 6.30 | > 6.30 | > 6.30
